Here are results for seven compounds from PMC11915372, “Identification of a Series Containing a Pentafluorophenyl Moiety That Targets Pks13 to Inhibit Growth of Mycobacterium tuberculosis” (ACS Infectious Diseases, 2025).

Each structure is given as a SMILES string. In brackets after ≈: the same amount, converted by molar mass. Where two headings read alike, the source gives them in different places. Where only a bound is given, the exact number is not on record here.

Data set [1] is classed as in vitro ADME, mouse. The settings on record: for Microsomal Cli: CD1, mouse; for Mouse micro Cl: microsomes.
The next data set relates to HepG2 cells. Nature of the data set: HepG2 cytotoxicity. The settings on record: Homo sapiens, HepG2, read-out: HepG2 inhibitory concentration (IC50).
In a further data set the test system is M. tuberculosis (H37Rv). Nature of the data set: microbe, parasite or virus in culture. The format is cell-based, Mycobacterium tuberculosis. The settings on record: Mycobacterium tuberculosis, H37RV.
Another data set in a line: physchem. The format is physicochemical.
The format of data set [2] is in vitro ADME, mouse. The settings on record: mouse.
Setting [3] is: read-out: Wk2_7H9/DPPC/ casitone/ Tyloxapol MIC.
Where [4] appears, read: read-out: Wk2_ 7H9/DPPC/ cholesterol/BSA/ Tyloxapol MIC.
Setting [5] is: read-out: Wk2_7H9/glucose/ BSA/Tyloxapol MIC.
[6] abbreviates: read-out: Wk2_7H9/glucose/ casitone/ Tyloxapol MIC.
[7] abbreviates: pH 7.4, aqueous buffer, kinetic from dmso stock.

From the text for HepG2 cells: Assays to establish HepG2 cytotoxicity, in vitro microsomal/hepatocyte metabolic stability, aqueous kinetic solubility, and in vivo pharmacokinetic profiles were all performed as previously described.[15],[35]−[37]

For the compound `CN(C)c1ncnc2sc(-c3c(F)c(F)cc(F)c3F)nc12` [Compound 2, CN(C)c1ncnc2sc(nc12)-c1c(c(cc(c1F)F)F)F], the “Microsomal Cli” value in data set [1] is listed as more than 50 mL/min/g. The “Mouse micro Cl” value in data set [1] was more than 50 mLmin/g. For the same compound, the IC50 in the data set with HepG2 cells was more than 100 µM. The MIC is more than 50 µM in the data set with M. tuberculosis (H37Rv) (read-out: H37Rv MIC A); more than 50 µM in the data set on M. tuberculosis (H37Rv) (read-out: H37Rv MIC B); more than 50 µM in the data set with M. tuberculosis (H37Rv) (setting [3]); more than 50 µM with M. tuberculosis (H37Rv) (setting [4]); more than 50 µM in the data set with M. tuberculosis (H37Rv) (setting [5]); 4.7 µM (≈ 1.54 µg/mL) in the data set on M. tuberculosis (H37Rv) (setting [6]).

In the case of `CN(C)c1ncnc2sc(-c3ccccc3)nc12` [Compound 3, CN(C)c1ncnc2sc(nc12)-c1ccccc1], the “Microsomal Cli” value in data set [1] was more than 50 mL/min/g. Besides, the “Mouse micro Cl” value in data set [1] was more than 50 mLmin/g. For the same compound, in the data set on HepG2 cells, the IC50 is more than 100 µM. Moreover, the MIC with M. tuberculosis (H37Rv) (read-out: H37Rv MIC A), in the data set on M. tuberculosis (H37Rv) (read-out: H37Rv MIC B), with M. tuberculosis (H37Rv) (setting [3]), with M. tuberculosis (H37Rv) (setting [4]), in the data set with M. tuberculosis (H37Rv) (setting [5]) and with M. tuberculosis (H37Rv) (setting [6]) was more than 50 µM in each case.

As to `CN(C)c1ncnc2sc(-c3cc(F)c(F)c(F)c3)nc12` [Compound 4, CN(C)c1ncnc2sc(nc12)-c1cc(c(c(c1)F)F)F], in data set [1], the “Microsomal Cli” value is listed as more than 50 mL/min/g. For the same compound, the “Mouse micro Cl” value in data set [1] was more than 50 mLmin/g. Further, the IC50 in the data set on HepG2 cells was more than 100 µM. The MIC in the data set on M. tuberculosis (H37Rv) (read-out: H37Rv MIC A), with M. tuberculosis (H37Rv) (read-out: H37Rv MIC B), with M. tuberculosis (H37Rv) (setting [3]), with M. tuberculosis (H37Rv) (setting [4]), in the data set on M. tuberculosis (H37Rv) (setting [5]) and in the data set with M. tuberculosis (H37Rv) (setting [6]) was more than 50 µM in each case.

For `CN(C)c1ncnc2sc(-c3ccc(F)cc3)nc12` [Compound 5, CN(C)c1ncnc2sc(nc12)-c1ccc(cc1)F], in data set [1], the “Microsomal Cli” value is more than 50 mL/min/g. In addition, the “Mouse micro Cl” value in data set [1] is given as more than 50 mLmin/g. In addition, the IC50 in the data set on HepG2 cells was more than 100 µM. Moreover, the MIC with M. tuberculosis (H37Rv) (read-out: H37Rv MIC A) was more than 50 µM; in the data set with M. tuberculosis (H37Rv) (read-out: H37Rv MIC B) it was more than 50 µM; in the data set with M. tuberculosis (H37Rv) (setting [3]) it was more than 50 µM; in the data set on M. tuberculosis (H37Rv) (setting [4]), more than 50 µM; with M. tuberculosis (H37Rv) (setting [5]), more than 50 µM; in the data set with M. tuberculosis (H37Rv) (setting [6]), 19 µM (≈ 5.21 µg/mL).

With `CN(C)c1ncnc2oc(-c3c(F)c(F)c(F)c(F)c3F)nc12` [Compound 6, CN(C)c1ncnc2oc(nc12)-c1c(c(c(c(c1F)F)F)F)F], the solubility kinetic in the data set “physchem” (setting [7]) amounted to 1 µM (≈ 0.33 µg/mL); in the data set “physchem” (read-out: Kin. Sol), 1.0 µM (≈ 0.33 µg/mL). Besides, in data set [1], the “Microsomal Cli” value is more than 50 mL/min/g. For the same compound, the “Mouse micro Cl” value in data set [1] was more than 50 mLmin/g. The “Hepatocyte Cli” value in data set [2] is more than 50 mL/min/g. Also, the “Mouse Heps Cl” value in data set [2] (hepatocytes) is reported as more than 50 mLmin/g. Further, the IC50 in the data set on HepG2 cells was more than 100 µM. The MIC turned out to be 0.2 µM (≈ 0.066 µg/mL) in the data set with M. tuberculosis (H37Rv) (read-out: H37Rv MIC A); 1.4 µM (≈ 0.462 µg/mL) in the data set with M. tuberculosis (H37Rv) (read-out: H37Rv MIC B); 0.2 µM (≈ 0.066 µg/mL) with M. tuberculosis (H37Rv) (setting [3]); 1.4 µM (≈ 0.462 µg/mL) with M. tuberculosis (H37Rv) (setting [4]); 1.4 µM (≈ 0.462 µg/mL) in the data set with M. tuberculosis (H37Rv) (setting [5]); 0.15 µM (≈ 0.0495 µg/mL) in the data set with M. tuberculosis (H37Rv) (setting [6]).

In the case of `CN(C)c1ncnc2c1nc(-c1c(F)c(F)c(F)c(F)c1F)n2C` [Compound 7, CN(C)c1ncnc2n(c(nc12)-c1c(c(c(c(c1F)F)F)F)F)C], the solubility kinetic in the data set “physchem” (setting [7]) and in the data set “physchem” (read-out: Kin. Sol) was 26 µM (≈ 8.92 µg/mL) each time. Moreover, in data set [1], the “Microsomal Cli” value turned out to be 8.4 mL/min/g. Moreover, the “Mouse micro Cl” value in data set [1] came to 8.4 mLmin/g. For the same compound, in the data set on HepG2 cells, the IC50 is more than 100 µM. The MIC was 1.9 µM (≈ 0.652 µg/mL) in the data set with M. tuberculosis (H37Rv) (read-out: H37Rv MIC A); more than 50 µM in the data set on M. tuberculosis (H37Rv) (read-out: H37Rv MIC B); 1.9 µM (≈ 0.652 µg/mL) in the data set on M. tuberculosis (H37Rv) (setting [3]); more than 50 µM with M. tuberculosis (H37Rv) (setting [4]); more than 50 µM with M. tuberculosis (H37Rv) (setting [5]); 1.7 µM (≈ 0.584 µg/mL) with M. tuberculosis (H37Rv) (setting [6]).

On to `CCN(CC)c1ncnc2sc(-c3c(F)c(F)c(F)c(F)c3F)nc12` [Compound 8, CCN(CC)c1ncnc2sc(nc12)-c1c(c(c(c(c1F)F)F)F)F], for which the solubility kinetic in “physchem” (setting [7]) is 0.142 µM (≈ 0.0532 µg/mL); in the data set “physchem” (water, kinetic from dmso stock) it was 0.1 µM (≈ 0.0374 µg/mL). In addition, the “Microsomal Cli” value in data set [1] is on record as 26 mL/min/g. For the same compound, the “Mouse micro Cl” value in data set [1] came to 26 mLmin/g. Also, in the data set with HepG2 cells, the IC50 is more than 100 µM. The MIC in the data set on M. tuberculosis (H37Rv) (read-out: H37Rv MIC A) is 0.3 µM (≈ 0.112 µg/mL); in the data set on M. tuberculosis (H37Rv) (read-out: H37Rv MIC B) it was 0.78 µM (≈ 0.292 µg/mL); in the data set on M. tuberculosis (H37Rv) (setting [3]) it was 0.3 µM (≈ 0.112 µg/mL); in the data set with M. tuberculosis (H37Rv) (setting [4]) it was 0.8 µM (≈ 0.299 µg/mL); in the data set on M. tuberculosis (H37Rv) (setting [5]), 0.8 µM (≈ 0.299 µg/mL); in the data set on M. tuberculosis (H37Rv) (setting [6]), 0.4 µM (≈ 0.15 µg/mL).
